From ChEMBL document CHEMBL5608189, “Design and synthesis of unique indole-benzosulfonamide oleanolic acid derivatives as potent antibacterial agents against MRSA” (Eur J Med Chem, 2024) come the findings set out here.

SMILES strings stand for the structures. Converted amounts (≈) assume the structure as drawn. The source made the active and inactive calls. No cut-off for these calls is given here.

Data set [1] has as its system Staphylococcus aureus. Briefly: Antibacterial activity against Staphylococcus aureus ATCC 6538 measured after 24 hrs by susceptibility assay. The class given is functional.
The test system of data set [2] is Staphylococcus aureus. As to the kind of experiment: Antibacterial activity against Staphylococcus aureus ATCC 29213 measured after 24 hrs by susceptibility assay. The class given is functional.
The subject of data set [3] is Staphylococcus aureus. As to the kind of experiment: Antibacterial activity against Staphylococcus aureus ATCC 6538 assessed as delay in bacterial growth at 0.5 times MIC measured every 2 hrs for 24 hrs by time kill assay. The class given is functional, organism-based.
Data set [4] concerns Staphylococcus aureus. As to the kind of experiment: Antibacterial activity against methicillin-resistant Staphylococcus aureus assessed as inhibition of bacterial growth at 1 times MIC measured every 2 hrs for 24 hrs by time kill assay. The class given is functional, organism-based.
Data set [5] concerns Staphylococcus aureus. As to the kind of experiment: Antibacterial activity against methicillin-resistant Staphylococcus aureus measured after 24 hrs by susceptibility assay. Format: functional.
Data set [6] relates to Staphylococcus aureus. Briefly: Antibacterial activity against methicillin-resistant Staphylococcus aureus assessed as delay in bacterial growth at 0.5 times MIC measured every 2 hrs for 24 hrs by time kill assay. The class given is functional, organism-based.
The nature of data set [7]: Hemolytic activity in rabbit red blood cells assessed as hemolytic rate at 128 times MIC measured after 1 hr by absorbance based method relative to control. The class given is toxicity, cell-based, Oryctolagus cuniculus, Erythrocyte. The note with it: rabbit red blood cells (erythrocytes), read-out: Activity.
For data set [8], the system named is Staphylococcus epidermidis. Briefly: Antibacterial activity against Staphylococcus epidermidis ATCC 12228 assessed as delay in bacterial growth at 0.5 times MIC measured every 2 hrs for 24 hrs by time kill assay. Format: functional, organism-based.
In data set [9] the test system is Staphylococcus epidermidis. Briefly: Antibacterial activity against Staphylococcus epidermidis ATCC 12228 assessed as inhibition of bacterial growth at 2 to 4 times MIC measured every 2 hrs for 24 hrs by time kill assay relative to control. The class given is functional.
Data set [10] has as its system Staphylococcus aureus. Briefly: Bactericidal activity against methicillin-resistant Staphylococcus aureus measured after 24 hrs. The class given is functional.
Data set [11] deals with Staphylococcus aureus. Briefly: Bactericidal activity against Staphylococcus aureus ATCC 29213 measured after 24 hrs. The class given is functional.
The test system of data set [12] is Staphylococcus epidermidis. Briefly: Antibacterial activity against Staphylococcus epidermidis ATCC 12228 measured after 24 hrs by susceptibility assay. The class given is functional.
Data set [13] relates to Staphylococcus epidermidis. As to the kind of experiment: Antibacterial activity against Staphylococcus epidermidis ATCC 12228 assessed as inhibition of bacterial growth at 1 times MIC measured every 2 hrs for 24 hrs by time kill assay. The class given is functional, organism-based.
Data set [14] relates to Staphylococcus epidermidis. As to the kind of experiment: Bactericidal activity against Staphylococcus epidermidis ATCC 12228 measured after 24 hrs. The class given is functional.
Data set [15] deals with Staphylococcus aureus. As to the kind of experiment: Resistant development in methicillin-resistant Staphylococcus aureus assessed as increase in MIC at sub-MIC measured after 20 passages. Format: functional, organism-based.
Data set [16] concerns Staphylococcus aureus. Briefly: Bactericidal activity against Staphylococcus aureus ATCC 6538 measured after 24 hrs. The class given is functional.
Data set [17] concerns Staphylococcus aureus. Briefly: Antibacterial activity against Staphylococcus aureus ATCC 6538 assessed as inhibition of bacterial growth at 2 to 4 times MIC measured every 2 hrs for 24 hrs by time kill assay relative to control. Format: functional.
Data set [18] concerns Staphylococcus aureus. Briefly: Antibacterial activity against Staphylococcus aureus ATCC 6538 assessed as inhibition of bacterial growth at 1 times MIC measured every 2 hrs for 24 hrs by time kill assay. Format: functional, organism-based.
Data set [19] relates to Staphylococcus aureus. As to the kind of experiment: Antibacterial activity against methicillin-resistant Staphylococcus aureus assessed as inhibition of bacterial growth at 2 to 4 times MIC measured every 2 hrs for 24 hrs by time kill assay relative to control. The class given is functional.
The subject of data set [20] is Staphylococcus aureus. As to the kind of experiment: Induction of morphological changes in methicillin-resistant Staphylococcus aureus assessed as appearance of wrinkled and depressed cell membrane surface at 8 times MIC incubated for 8 hrs by SEM analysis. The class given is functional, organism-based.
Data set [21] relates to Staphylococcus aureus. As to the kind of experiment: Induction of morphological changes in methicillin-resistant Staphylococcus aureus assessed as disruption of cellular structure at 8 times MIC incubated for 8 hrs by SEM analysis. The class given is functional, organism-based.

Consider `CC(=O)c1cccc2c3c([nH]c12)C(C)(C)[C@@H]1CC[C@]2(C)[C@H](CC=C4[C@@H]5CC(C)(C)CC[C@]5(C(=O)NS(=O)(=O)c5ccccc5)CC[C@]42C)[C@@]1(C)C3`, for which the MIC in data set [1] was 1 µM (≈ 0.709 µg/mL); in data set [2], 2 µM (≈ 1.42 µg/mL); in data set [5] it was 1 µM (≈ 0.709 µg/mL); in [12], 0.5 µM (≈ 0.355 µg/mL). Moreover, the result in [3], in [4], in [6], in [8], in [13] and in data set [18] was Active. In [7], the hemolysis at 1 h, 128 times MIC is less than 5%. Further, the “inhibition (INH)” value in [9], in data set [17] and in [19] was 100% in each case. In addition, the MBC turned out to be 4 µM (≈ 2.84 µg/mL) in data set [10], 2 µM (≈ 1.42 µg/mL) in [11], 2 µM (≈ 1.42 µg/mL) in [14] and 2 µM (≈ 1.42 µg/mL) in data set [16]. Also, the outcome in data set [15] was inactive.

Consider `CCn1cc(C(=O)O)c(=O)c2cc(F)c(N3CCNCC3)cc21` [NORFLOXACIN], for which the MIC came to 2 µM (≈ 0.639 µg/mL) in data set [1], 2 µM (≈ 0.639 µg/mL) in data set [2], 4 µM (≈ 1.28 µg/mL) in data set [5] and 1 µM (≈ 0.319 µg/mL) in [12]. Moreover, the result in [20] was Active. Moreover, the outcome in data set [21] was inactive.

For the molecule `Cc1ccc(S(=O)(=O)NC(=O)[C@]23CCC(C)(C)C[C@H]2C2=CC[C@@H]4[C@@]5(C)Cc6c([nH]c7c(C(=O)O)cccc67)C(C)(C)[C@@H]5CC[C@@]4(C)[C@]2(C)CC3)cc1`, the minimum inhibitory concentration (MIC) in data set [1] stood at 1 µM (≈ 0.725 µg/mL); in data set [2], 2 µM (≈ 1.45 µg/mL); in data set [5], 2 µM (≈ 1.45 µg/mL); in data set [12] it was 2 µM (≈ 1.45 µg/mL). The outcome in data set [3], in [4], in data set [6], in data set [8], in data set [13] and in data set [18] was Active. Moreover, the hemolysis at 1 h, 128 times MIC in [7] is less than 5%. The “inhibition (INH)” value in [9], in data set [17] and in [19] was 100% in each case. Besides, the MBC in [10] was found to be 16 µM (≈ 11.6 µg/mL); in data set [11] it was 2 µM (≈ 1.45 µg/mL); in data set [14], 4 µM (≈ 2.9 µg/mL); in data set [16], 2 µM (≈ 1.45 µg/mL). The outcome in data set [15] was inactive.
